From patent publication US20260098026A1, “M4 ACTIVATORS/MODULATORS AND USES THEREOF” (Cerevel Therapeutics, LLC, priority 2022, published 2026)

Assays:
[1] = target: T1, M3 muscarinic acetylcholine receptor (mAChR) (Homo sapiens, UniProt P20309); assay: FLIPR calcium assay (Fluo 8), M3-overexpressing CHO-K1 cells; format: cell-based
T1 construct: expressed in transfected cells; host or cells: CHO-K1
Procedure: Stimulation of a Gq-coupled G-protein coupled receptors (GPCRs), result in an efflux of calcium from the endoplasmic reticulum to the cytoplasm (Berridge, 1993), thus rendering this assay appropriate for the assessment of M1, M3 and M5 receptors. CHO-K1 cells overexpressing the M1, M3, or M5 muscarinic acetylcholine receptor (mAChR) were dispensed at 15,000 cells per well in 30 μl volume to 384-well plates and grown overnight at 37° C. in a 5% CO2 atmosphere. Fluo-8 Solution, 10 μl per well, was added to each well and incubated for 30 minutes at 37° C. in a 5% CO2 atmosphere. Compounds diluted in Hanks' balanced salt solution (HBSS) were transferred to the cell assay plate at 10 μl per well, and then read on a FLIPR instrument. EC50 and Emax figures were calculated from the resulting data for each receptor subtype.

M4 mAChR = target: T2, M4 mAChR (Homo sapiens, UniProt P08173); assay: cAMP TR-FRET assay with forskolin, M4-overexpressing CHO-K1 cells; format: cell-based
T2 construct: expressed in transfected cells; host or cells: CHO-K1
T2 sequence (P08173 1-479): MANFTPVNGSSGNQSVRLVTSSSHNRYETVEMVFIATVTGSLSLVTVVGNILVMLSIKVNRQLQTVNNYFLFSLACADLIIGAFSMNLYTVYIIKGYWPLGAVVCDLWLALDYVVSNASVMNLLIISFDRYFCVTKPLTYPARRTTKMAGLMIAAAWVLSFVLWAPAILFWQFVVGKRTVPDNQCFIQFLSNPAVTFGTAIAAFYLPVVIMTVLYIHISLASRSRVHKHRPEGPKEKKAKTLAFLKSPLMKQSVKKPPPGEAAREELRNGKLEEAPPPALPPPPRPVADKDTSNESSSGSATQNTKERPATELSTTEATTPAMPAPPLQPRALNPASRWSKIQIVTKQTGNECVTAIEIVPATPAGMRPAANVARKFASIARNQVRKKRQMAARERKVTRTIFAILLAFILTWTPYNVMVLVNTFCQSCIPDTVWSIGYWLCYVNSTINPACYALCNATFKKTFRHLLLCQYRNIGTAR
Description: The M2 and M4 mACh receptors are Gi-coupled receptors which, upon activation, produce a decrease in cAMP. Assays were developed that measured the potency and efficacy of compounds at the M2 or M4 mAChR using M2- or M4-overexpressing CHO-K1 cell lines. Time-resolved fluorescence resonance energy transfer (TR-FRET) technology was used, where signal occurs as a result of transfer of energy if the donor molecule is in close proximity to an acceptor molecule when the molecules have bound to the molecule of interest. The cAMP detection is a competition binding assay, where cAMP produced by cells competes for binding with the labeled donor molecule to the anti-cAMP acceptor antibody. Due to the low basal levels of cAMP in the CHO-K1 cell line, forskolin was used to increase cAMP levels to enable assessment of agonist activity at the mAChR of interest.

T1 sequence (P20309 whole entry): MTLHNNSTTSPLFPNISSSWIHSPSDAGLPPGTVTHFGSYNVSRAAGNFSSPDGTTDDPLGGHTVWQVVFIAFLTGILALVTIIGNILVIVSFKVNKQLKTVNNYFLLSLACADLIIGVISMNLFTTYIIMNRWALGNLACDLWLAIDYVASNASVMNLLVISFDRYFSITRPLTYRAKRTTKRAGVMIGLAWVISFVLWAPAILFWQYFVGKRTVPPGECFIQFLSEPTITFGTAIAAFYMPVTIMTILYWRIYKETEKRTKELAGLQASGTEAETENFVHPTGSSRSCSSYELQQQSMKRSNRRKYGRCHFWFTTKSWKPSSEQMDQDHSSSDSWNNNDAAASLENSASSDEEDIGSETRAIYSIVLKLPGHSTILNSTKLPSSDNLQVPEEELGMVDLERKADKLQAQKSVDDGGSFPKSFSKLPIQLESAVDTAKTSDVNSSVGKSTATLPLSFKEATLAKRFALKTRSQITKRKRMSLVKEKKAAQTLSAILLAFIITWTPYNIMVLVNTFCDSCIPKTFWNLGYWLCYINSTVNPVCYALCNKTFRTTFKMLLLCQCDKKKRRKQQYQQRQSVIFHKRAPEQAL

SMILES | EC50 ([1]; FLIPR calcium) [µM] | Emax (M4 mAChR; cAMP TR-FRET with forskolin) [%] | EC50 ([1]; FLIPR) [µM] | Emax (M4 mAChR; cAMP assay) [%]
CCOC(=O)N1CC2(CC[C@@H](N3CCN(c4cc(Cl)cnc4C4CCOCC4)CC3)C2)C1 (single isomer, unassigned) [Compound A15] | > 10 | 80 to 100 | – | –
CCOC(=O)N1CC2(CC(N3[C@@H]4CC[C@H]3CN(c3cc(F)cnc3-c3cnccn3)C4)CS2)C1 (single isomer, unassigned) [Compound A219] | – | – | > 10 | < 19
CCOC(=O)N1CC2(CCC(N3[C@@H]4CC[C@H]3CN(c3cc(F)cnc3-c3cnccn3)C4)C2)C1 (single isomer, unassigned) [Compound A223] | – | – | > 10 | 80 to 100
CCOC(=O)N1CC2(CC[C@@H](N3CCN(c4cc(F)cnc4-c4cnccn4)CC3)C2)C1 [Compound A6, (R)-ethyl 6-(4-(5-fluoro-2-(pyrazin-2-yl)pyridin-3-yl)piperazin-1-yl)-2-azaspiro[3.4]octane-2-carboxylate] | > 10 | 80 to 100 | – | –
CCOC(=O)N1CC2(CC[C@@H](N3CCN(c4cc(F)cnc4NC4CCOCC4)CC3)C2)C1 [Compound A9, ethyl (6R)-6-[4-[5-fluoro-2-(tetrahydropyran-4-ylamino)-3-pyridyl]piperazin-1-yl]-2-azaspiro[3.4]octane-2-carboxylate] | > 10 | 80 to 100 | – | –
CCOC(=O)N1CC2(CC[C@@H](N3CCN(c4cc(F)cnc4-n4cc(C)cn4)CC3)C2)C1 [Compound A10, ethyl (6R)-6-[4-[5-fluoro-2-(4-methylpyrazol-1-yl)-3-pyridyl]piperazin-1-yl]-2-azaspiro[3.4]octane-2-carboxylate] | > 10 | 80 to 100 | – | –
CCOC(=O)N1CC2(CC[C@@H](N3CCN(c4cccnc4-c4cncc(C)c4)CC3)C2)C1 [Compound A25] | > 10 | 80 to 100 | – | –
CCOC(=O)N1CC2(CC[C@@H](N3CCN(c4cccnc4-c4cncc(F)c4)CC3)C2)C1 [Compound A26] | > 10 | 80 to 100 | – | –
CCOC(=O)N1CC2(CC[C@@H](N3CCN(c4cc(F)cnc4-c4ccc(C#N)nc4)CC3)C2)C1 [Compound A29] | > 10 | 80 to 100 | – | –
CCOC(=O)N1CC2(CC[C@@H](N3CCN(c4cc(F)cnc4-c4ccnc5[nH]ccc45)CC3)C2)C1 [Compound A30] | > 10 | 80 to 100 | – | –
CCOC(=O)N1CC2(CC[C@@H](N3CCN(c4cc(F)cnc4-c4cncc(C)c4)CC3)C2)C1 [Compound A31] | > 10 | 80 to 100 | – | –
CCOC(=O)N1CC2(CC[C@@H](N3CCN(c4cc(F)cnc4-c4cccc(O)c4)CC3)C2)C1 [Compound A32] | > 10 | 80 to 100 | – | –
CCOC(=O)N1CC2(CC[C@@H](N3CCN(c4cc(F)cnc4-c4ccc5nn(C)cc5c4)CC3)C2)C1 [Compound A33] | > 10 | 80 to 100 | – | –
CCOC(=O)N1CC2(CC[C@@H](N3CCN(c4cc(F)cnc4-c4ccc(CO)cc4)CC3)C2)C1 [Compound A34] | > 10 | 80 to 100 | – | –
CCOC(=O)N1CC2(CC[C@@H](N3CCN(c4cc(F)cnc4-c4cnccc4C)CC3)C2)C1 [Compound A35] | > 10 | 80 to 100 | – | –
CCOC(=O)N1CC2(CC[C@@H](N3CCN(c4cc(F)cnc4-c4cncc(OC)c4)CC3)C2)C1 [Compound A36] | > 10 | 80 to 100 | – | –
CCOC(=O)N1CC2(CC[C@@H](N3CCN(c4cc(F)cnc4-c4cccnc4)CC3)C2)C1 [Compound A37] | > 10 | 80 to 100 | – | –
CCOC(=O)N1CC2(CC[C@@H](N3CCN(c4cc(F)cnc4-c4cnn(CCOC)c4)CC3)C2)C1 [Compound A38] | > 10 | 80 to 100 | – | –
CCOC(=O)N1CC2(CC[C@@H](N3CCN(c4cc(F)cnc4-c4ccn(COCC[Si](C)(C)C)n4)CC3)C2)C1 [Compound A196] | – | – | > 10 | –

Further lines, with some results ahead:

EC50 ([1]; FLIPR calcium) [µM] | Emax (M4 mAChR; cAMP TR-FRET with forskolin) [%] | EC50 ([1]; FLIPR) [µM] | SMILES | Emax (M4 mAChR; cAMP assay) [%]
> 10 | 80 to 100 | – | CCOC(=O)N1CC2(CC[C@@H](N3CCN(c4cc(F)cnc4-c4cccc(C#N)c4)CC3)C2)C1 [Compound A39] | –
> 10 | 80 to 100 | – | CCOC(=O)N1CC2(CC[C@@H](N3CCN(c4cc(F)cnc4-c4ccc(O)c(OC)c4)CC3)C2)C1 [Compound A40] | –
> 10 | 80 to 100 | – | CCOC(=O)N1CC2(CC[C@@H](N3CCN(c4cc(F)cnc4-c4cncc(C(C)(C)O)c4)CC3)C2)C1 [Compound A41] | –
> 10 | 80 to 100 | – | CCOC(=O)N1CC2(CC[C@@H](N3CCN(c4cc(F)cnc4-c4cc(F)ccc4O)CC3)C2)C1 [Compound A42] | –
> 10 | 80 to 100 | – | CCOC(=O)N1CC2(CC[C@@H](N3CCN(c4cc(F)cnc4-c4ccc(C#N)c(OC)c4)CC3)C2)C1 [Compound A43] | –
> 10 | 80 to 100 | – | CCOC(=O)N1CC2(CC[C@@H](N3CCN(c4cc(F)cnc4-c4ccc(O)c(F)c4)CC3)C2)C1 [Compound A44] | –
> 10 | 80 to 100 | – | CCOC(=O)N1CC2(CC[C@@H](N3CCN(c4cc(F)cnc4-c4ccncc4F)CC3)C2)C1 [Compound A45] | –
> 10 | 80 to 100 | – | CCOC(=O)N1CC2(CC[C@@H](N3CCN(c4cc(F)cnc4-c4cccnc4OC)CC3)C2)C1 [Compound A46] | –
> 10 | 80 to 100 | – | CCOC(=O)N1CC2(CC[C@@H](N3CCN(c4cc(F)cnc4-c4ccccc4C#N)CC3)C2)C1 [Compound A47] | –
> 10 | 80 to 100 | – | CCOC(=O)N1CC2(CC[C@@H](N3CCN(c4cc(F)cnc4-c4ccc5c(c4)OCCO5)CC3)C2)C1 [Compound A48] | –
> 10 | 50 to 79.9 | – | CCOC(=O)N1CC2(CC[C@@H](N3CCN(c4cc(F)cnc4-c4cc(C)cnc4OC)CC3)C2)C1 [Compound A50] | –
> 10 | 80 to 100 | – | CCOC(=O)N1CC2(CC[C@@H](N3CCN(c4cc(F)cnc4-c4ccc5cnn(C)c5c4)CC3)C2)C1 [Compound A54] | –
> 10 | 80 to 100 | – | CCOC(=O)N1CC2(CC[C@@H](N3CCN(c4cc(F)cnc4-c4ccnc(F)c4)CC3)C2)C1 [Compound A55] | –
> 10 | 80 to 100 | – | CCOC(=O)N1CC2(CC[C@@H](N3CCN(c4cc(F)cnc4-c4ccc(N(C)C)nc4)CC3)C2)C1 [Compound A56] | –
> 10 | 80 to 100 | – | CCOC(=O)N1CC2(CC[C@@H](N3CCN(c4cc(F)cnc4-c4cccc(CO)c4)CC3)C2)C1 [Compound A57] | –
> 10 | 80 to 100 | – | CCOC(=O)N1CC2(CC[C@@H](N3CCN(c4cc(F)cnc4-c4cccc5c4cnn5C)CC3)C2)C1 [Compound A58] | –
> 10 | 80 to 100 | – | CCOC(=O)N1CC2(CC[C@@H](N3CCN(c4cc(F)cnc4-c4cccc5nn(C)cc45)CC3)C2)C1 [Compound A60] | –
> 10 | 80 to 100 | – | CCOC(=O)N1CC2(CC[C@@H](N3CCN(c4cc(F)cnc4-c4cccc5c[nH]nc45)CC3)C2)C1 [Compound A61] | –
> 10 | 80 to 100 | – | CCOC(=O)N1CC2(CC[C@@H](N3CCN(c4cc(F)cnc4-c4cccc5n[nH]cc45)CC3)C2)C1 [Compound A62] | –
– | – | > 10 | CCOC(=O)N1CC2(CCC(N3CCN(c4cc(F)cnc4-c4cnccn4)CC3)CC2)C1 [Compound A224] | –
– | – | > 10 | CCOC(=O)N1CC2(C[C@H](N3CCN(c4cc(F)cnc4-c4cnccn4)CC3)CS2)C1 [Compound A225] | –
– | – | > 10 | CCOC(=O)N1CC2(CC[C@@H](N3CCN(c4cc(F)cnc4-c4cc(F)cnc4F)CC3)C2)C1 [Compound A232] | –
– | – | > 10 | CCOC(=O)N1CC2(C[C@H](N3CCN(c4cccnc4-c4nncs4)CC3)CO2)C1 [Compound A237] | –
– | – | > 10 | CCOC(=O)N1CC2(CC[C@@H](N3CCN(c4cc(Cl)cnc4-c4ccnc(C)n4)CC3)C2)C1 [Compound A248] | –
– | – | > 10 | CCOC(=O)N1CC2(CC[C@@H](N3CCN(c4cc(F)cnc4-c4ccnc(C)n4)CC3)C2)C1 [Compound A254] | –
– | – | > 10 | CCOC(=O)N1CC2(CC[C@@H](N3CCN(c4cc(F)cnc4-c4cnn(C(C)C)n4)CC3)C2)C1 [Compound A257] | –
– | – | > 10 | CCOC(=O)N1CC2(CC[C@@H](N3CCC(c4cc(F)cnc4-c4ccc(F)cn4)CC3)C2)C1 [Compound A292] | –
